Among the data in PubChem BioAssay AID1918947 (Molecular Pharmacology Branch, DTP, NCI, 2023) are IC50 and viability, T/C values, retold here.

The subject of the assay is A498 complex spheroid viability. Kind of assay: Anticancer human tumor A498 cell line growth inhibition.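 For all read-outs here: spheroids exposed to agents for seven days before readout.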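 For viability, T/C: 100% = DMSO vehicle-treated spheroids.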 The conditions noted are these: for viability, T/C: stronger effect = lower value. The method, boiled down:
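Drug combinations with the LSD1 inhibitor iadademstat tested on tumor cells co-cultured as spheroids with endothelial cells and mesenchymal stem cells. Concentrations descended in half-log increments from clinical Cmax or 10 microM.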

The mark [1] stands for this setting: curve of first compound, second compound 0.1 µM.
The mark [2] stands for this setting: curve of first compound, second compound 0.316 µM.
The mark [3] stands for this setting: curve of first compound, second compound 1 µM.
[4] abbreviates: curve of first compound, second compound 3.16 µM.
[5] abbreviates: curve of first compound, second compound 10 µM.
Setting [6] is: second compound 0.1 µM, first compound 0.00949 µM.
[7] abbreviates: second compound 0.1 µM, first compound 0.03 µM.
[8] abbreviates: second compound 0.1 µM, first compound 0.0949 µM.
The mark [9] stands for this setting: second compound 0.1 µM, first compound 0.3 µM.
The mark [10] stands for this setting: second compound 0.1 µM, first compound 0.949 µM.
Setting [11] is: second compound 0.1 µM, first compound 3 µM.
Where [12] appears, read: second compound 0.316 µM, first compound 0.00949 µM.
The mark [13] stands for this setting: second compound 0.316 µM, first compound 0.03 µM.
The mark [14] stands for this setting: second compound 0.316 µM, first compound 0.0949 µM.
The mark [15] stands for this setting: second compound 0.316 µM, first compound 0.3 µM.
Setting [16] is: second compound 0.316 µM, first compound 0.949 µM.
Setting [17] is: second compound 0.316 µM, first compound 3 µM.
Where [18] appears, read: second compound 1 µM, first compound 0.00949 µM.
Setting [19] is: second compound 1 µM, first compound 0.03 µM.
[20] abbreviates: second compound 1 µM, first compound 0.0949 µM.
Where [21] appears, read: second compound 1 µM, first compound 0.3 µM.
[22] abbreviates: second compound 1 µM, first compound 0.949 µM.
The mark [23] stands for this setting: second compound 1 µM, first compound 3 µM.
Where [24] appears, read: second compound 3.16 µM, first compound 0.00949 µM.
Where [25] appears, read: second compound 3.16 µM, first compound 0.03 µM.
[26] abbreviates: second compound 3.16 µM, first compound 0.0949 µM.
The mark [27] stands for this setting: second compound 3.16 µM, first compound 0.3 µM.
Where [28] appears, read: second compound 3.16 µM, first compound 0.949 µM.
The mark [29] stands for this setting: second compound 3.16 µM, first compound 3 µM.
The mark [30] stands for this setting: second compound 10 µM, first compound 0.00949 µM.
Where [31] appears, read: second compound 10 µM, first compound 0.03 µM.
Setting [32] is: second compound 10 µM, first compound 0.0949 µM.
The mark [33] stands for this setting: second compound 10 µM, first compound 0.3 µM.
[34] abbreviates: second compound 10 µM, first compound 0.949 µM.
Setting [35] is: second compound 10 µM, first compound 3 µM.

pIC50: −log10 of the molar value. “And” between values parts separate entries of the source, which are not always exact repeats. Identical values can stand only once. Some results are limits rather than exact numbers.

`COc1cc(C2c3cc4c(cc3C(OC3OC5COC(C)OC5C(O)C3O)C3COC(=O)C23)OCO4)cc(OC)c1O` (stereo unspecified) + NC1CC1c1ccc(-c2cccc(O)c2)cc1: the pIC50 reads like this: under setting [1], 5.74; under setting [2], < 5.52; under setting [3], 5.95; under setting [4], 6.53; under setting [5], 6.28. Also, the viability, T/C under setting [6] was 75.3%; the viability, T/C under setting [7] is 68.7%; the viability, T/C under setting [8] was 62.1%; the viability, T/C under setting [9] is 62.8%; the viability, T/C under setting [10] was 58.2%; the viability, T/C under setting [11] was 44.4%. The viability, T/C was 87.3% under setting [12]; 74.7% under setting [13]; 68.7% under setting [14]; 58.6% under setting [15]; 55.6% under setting [16]; 51.3% under setting [17]. In addition, the viability, T/C under setting [18] is 76.7%; the viability, T/C under setting [19] was 63%; the viability, T/C under setting [20] is 59.9%; the viability, T/C under setting [21] was 49.8%; the viability, T/C under setting [22] is 54.1%; the viability, T/C under setting [23] is 46.5%. The viability, T/C reads like this: under setting [24], 66.4%; under setting [25], 53.6%; under setting [26], 55.9%; under setting [27], 52.2%; under setting [28], 46.1%; under setting [29], 42.9%. In addition, the viability, T/C is 63.5% under setting [30]; 61.1% under setting [31]; 57.5% under setting [32]; 51.7% under setting [33]; 47.4% under setting [34]; 41.7% under setting [35].

As to `CC(C)CC(NC(=O)CNC(=O)c1cc(Cl)ccc1Cl)B1OC(=O)CC(CC(=O)O)(C(=O)O)O1` (stereo unspecified), the viability, T/C by setting is: (compound 0.000316 µM) 102% and 107%; (compound 0.001 µM) 106% and 107%; (compound 0.00316 µM) 69.4% and 75.4%; (compound 0.01 µM) 24.7% and 21.5%; (compound 0.0316 µM) 5.96% and 6.51%; (compound 0.1 µM) 2.46% and 1.92%. For the same compound, for the setting “curve of compound”, the negative logarithm of the IC50 (pIC50) was 8.28 and 8.26.

As to `CC1(C)CCC(CN2CCN(c3ccc(C(=O)NS(=O)(=O)c4ccc(NCC5CCOCC5)c([N+](=O)[O-])c4)c(Oc4cnc5[nH]ccc5c4)c3)CC2)=C(c2ccc(Cl)cc2)C1`, the viability, T/C by setting is: (compound 0.0316 µM) 103% and 98.6%; (compound 0.1 µM) 107% and 105%; (compound 0.316 µM) 97.5% and 95.6%; (compound 1 µM) 93% and 88.7%; (compound 3.16 µM) 74.2% and 67.7%; (compound 10 µM) 6.84% and 8.34%. In addition, the pIC50 (curve of compound) is 5.33 and 5.36.

As to `O=C(C=Cc1cccc(S(=O)(=O)Nc2ccccc2)c1)NO` + NC1CCC(NC2CC2c2ccccc2)CC1, the pIC50 by setting is: under setting [1], 6.58; under setting [2], 6.60; under setting [3], 6.60; under setting [4], 6.77; under setting [5], 6.88. Further, the viability, T/C is, setting by setting: under setting [6], 81.5%; under setting [7], 82.3%; under setting [8], 67.1%; under setting [9], 43.2%; under setting [10], 33.6%; under setting [11], 12.9%. The viability, T/C by setting is: under setting [12], 88%; under setting [13], 87.1%; under setting [14], 69.3%; under setting [15], 41.2%; under setting [16], 33.1%; under setting [17], 11.7%. The viability, T/C runs as follows: under setting [18], 79.1%; under setting [19], 78%; under setting [20], 63.1%; under setting [21], 46.8%; under setting [22], 28.1%; under setting [23], 10.4%. Further, the viability, T/C is, setting by setting: under setting [24], 79.9%; under setting [25], 72.7%; under setting [26], 60.4%; under setting [27], 38.8%; under setting [28], 23.2%; under setting [29], 8.14%. Also, the viability, T/C runs as follows: under setting [30], 70.4%; under setting [31], 64.6%; under setting [32], 56.5%; under setting [33], 36%; under setting [34], 22.9%; under setting [35], 7.67%.

On to `Nc1ccn(C2OC(CO)C(O)C2(F)F)c(=O)n1` (stereo unspecified) + NC1CC1c1ccc(-c2cccc(O)c2)cc1, for which the pIC50 runs as follows: under setting [1], > 9.02; under setting [2], > 9.02; under setting [3], > 9.02; under setting [4], > 9.02; under setting [5], > 9.02. Besides, the viability, T/C was 20.6% (second compound 0.1 µM, first compound 0.000949 µM); 28.4% (second compound 0.1 µM, first compound 0.003 µM); 98.4% under setting [6]; 36.4% under setting [7]; 35.8% under setting [8]; 31.5% under setting [9]. Further, the viability, T/C (second compound 0.316 µM, first compound 0.000949 µM) is 22.6%; the viability, T/C (second compound 0.316 µM, first compound 0.003 µM) was 28.6%; the viability, T/C under setting [12] is 112%; the viability, T/C under setting [13] was 33.9%; the viability, T/C under setting [14] was 35.3%; the viability, T/C under setting [15] is 32.3%. Besides, the viability, T/C by setting is: (second compound 1 µM, first compound 0.000949 µM) 22.5%; (second compound 1 µM, first compound 0.003 µM) 26.8%; under setting [18], 105%; under setting [19], 35.5%; under setting [20], 29.3%; under setting [21], 30.6%. Further, the viability, T/C was 22.6% (second compound 3.16 µM, first compound 0.000949 µM); 28.3% (second compound 3.16 µM, first compound 0.003 µM); 94.6% under setting [24]; 36.1% under setting [25]; 30.3% under setting [26]; 28.1% under setting [27]. Also, the viability, T/C was 23.5% (second compound 10 µM, first compound 0.000949 µM); 28.2% (second compound 10 µM, first compound 0.003 µM); 93.5% under setting [30]; 40.7% under setting [31]; 32.9% under setting [32]; 29.4% under setting [33].

On to `CCN(c1cc(-c2ccc(CN3CCOCC3)cc2)cc(C(=O)NCc2c(C)cc(C)[nH]c2=O)c1C)C1CCOCC1` + NC1CCC(NC2CC2c2ccccc2)CC1, for which the pIC50 was < 5.52 under setting [1]; < 5.52 under setting [2]; < 5.52 under setting [3]; < 5.52 under setting [4]; < 5.52 under setting [5]. In addition, the viability, T/C runs as follows: under setting [6], 85.8%; under setting [7], 90.7%; under setting [8], 92.1%; under setting [9], 91.4%; under setting [10], 94.4%; under setting [11], 92.9%. Further, the viability, T/C is 93.2% under setting [12]; 101% under setting [13]; 100% under setting [14]; 98.9% under setting [15]; 92.4% under setting [16]; 92.9% under setting [17]. Besides, the viability, T/C under setting [18] is 91.7%; the viability, T/C under setting [19] is 97%; the viability, T/C under setting [20] is 97.3%; the viability, T/C under setting [21] is 90.1%; the viability, T/C under setting [22] was 86.8%; the viability, T/C under setting [23] was 87.2%. Further, the viability, T/C runs as follows: under setting [24], 87.3%; under setting [25], 95%; under setting [26], 90.6%; under setting [27], 89.1%; under setting [28], 85.8%; under setting [29], 78.2%. For the same compound, the viability, T/C is 80.4% under setting [30]; 87.5% under setting [31]; 88.4% under setting [32]; 82.1% under setting [33]; 82.7% under setting [34]; 72.9% under setting [35].

In the case of `CC1COCCN1c1cc(-c2ccnn2C)c2ccnc(-c3ccn[nH]3)c2n1` (stereo unspecified), the viability, T/C is, setting by setting: (compound 0.00316 µM) 103% and 100%; (compound 0.01 µM) 82% and 81.8%; (compound 0.0316 µM) 36.7% and 37.3%; (compound 0.1 µM) 18.8% and 22.5%; (compound 0.316 µM) 14.9% and 16.1%; (compound 1 µM) 11.2% and 10.8%. Moreover, where the note is “curve of compound”, the negative-log IC50 (pIC50) is 7.64 and 7.63.
